Values joined by “and” are separate entries in the source; they are usually repeats but may differ in a detail not shown here. Equal values may be shown once. Marks after values point to notes of the source that are not given here. Blank lines part the entries; values can stand above or below the compound they belong to.
Experiments:
[1] = Thermogravimetric analysis (TGA), thermal stability; type: physicochemical; details: 10° C. min-1, reported at 5% weight loss
Method: TGA was utilised to determine thermal stability. Initially the starting materials (LIDO, MA, SA and GMS) were analysed to deduce the degradation temperature. The excipients were exposed to a heating ramp from room temperature (circa 20° C.) to 500° C., at 10° C. min-1.
LIDO and the relevant lipids were weighed and heated at 80° C. until molten. The samples were given 24 hours to cool/solidify before they were ground using a mortar and pestle for 2 min. The resultant systems were heated at 10° C. min-1 from room temperature to 350° C. All TGA experiments were conducted in triplicates, using Perkin-Elmer Aluminum Non-Hermetic DSC pans. Nitrogen (60 mL min-1) was used as the purge gas. The degradation temperature was reported at 5% weight loss. Analysis was performed using TA Universal analysis software.
Consequently, TGA is an essential technique used to inform the suitability of these materials and processing conditions of HME. The thermal degradation temperature was reported at 5% weight loss.

[2] = Lidocaine and myristic acid remaining post-implantation; type: in vivo; details: individual sheep
Method: The components of the outer coating were dissolved by sonication in dicholoromethane and the volume was then made up to 50 ml. Two ml of this solution was dried for 1 h at 50° C. and reconstituted in 100 ml methanol. The methanolic solutions were appropriately diluted in the mobile phase for assay by LCMS-MS.

[3] = cited from earlier work
[4] = In vivo sheep study, pharmacokinetics of lidocaine and myristic acid; details: FIG. 25
[5] = Assessment of drug loading capacity of EVA

- Mean Degradation Temperature ± SD ([1]; listed as MA): 177.55 °C and 177.55 ± 0.82 °C
- Myristic acid % Remaining ([2]; in co-extrudate after 7 days implantation, listed as Myristic acid): <4.00* %
- Myristic acid % Remaining ([2]; in co-extrudate after 7 days implantation, listed as myristic acid): too low to quantify
SMILES: CCCCCCCCCCCCCC(=O)O [Myristic Acid]
- Myristic acid % Remaining ([2]; in co-extrudate after 3 days implantation, mean ± SD n=3): 10.04 ± 1.82% and 16.91 ± 6.77% and 11.21 ± 0.98%
- LogP [3]: 5.37
- Concentration in peritoneal fluid compared to plasma [4]: higher concentrations again observed in peritoneal fluid

- Mean Degradation Temperature ± SD ([1]; listed as GMS): 197.34 °C and 197.34 ± 8.23 °C
SMILES: CCCCCCCCCCCCCCCCCC(=O)OCC(O)CO (centres unmarked) [Glycerol Monostearate]
- LogP [3]: 5.97

SMILES: CCN(CC)CC(=O)Nc1c(C)cccc1C [Lidocaine, 2-(diethyl-amino)-N-(2,6-dimethylpheny)-acetamide, reference compound]
- Mean Degradation Temperature ± SD ([1]; listed as LIDO): 164.40 ± 1.30 °C
- Mean Degradation Temperature ± SD ([1]; listed as lidocaine): 164.40 °C
- Lidocaine concentration at which it crystalises out ([5]; in EVA 33%): > 10%
- Lidocaine concentration over which it crystallises out ([5]; solvent cast EVA film or EVA polymer implant): 9-10 % w/w

- Mean Degradation Temperature ± SD ([1]; listed as SA): 201.75 °C and 201.75 ± 4.12 °C
SMILES: CCCCCCCCCCCCCCCCCC(=O)O [Stearic Acid]
- LogP [3]: 7.15
